# Test results taken from US20150037253A1, “METAL COMPLEXES AS IMAGING AGENTS” (The University of Melbourne, priority 2011, published 2015).
# Experiments:
# [1] = Cyclic voltammetry, Cu(II)/Cu(I) reduction potential; type: physicochemical; conditions: vs. SCE, in DMF, glassy carbon electrode
# Method: Cyclic voltammograms were recorded using an AUTOLAB PGSTAT100 equipped with GPES V4.9 software. Measurements of the complexes were carried out at approximately 1×10^−3 M in dimethylformamide with tetrabutylammonium tetrafluoroborate (1×10^−1 M) as electrolyte using a glassy carbon disk (d, 3 mm) working electrode, a Pt wire counter/auxiliary electrode, and a Ag/Ag^+ pseudo reference electrode (silver wire in H2O (KCl (0.1 M)) AgNO3 (0.01 M)). Ferrocene was used as an internal reference (Em(Fc/Fc^+)=0.54 V vs. SCE), where Em refers to the midpoint between a reversible reductive (Epc) and oxidative (Epa) couple, given by Em=(Epc+Epa)/2. Irreversible systems are only given reductive (Epc) and oxidative (Epa) values, respectively.
# [2] = tested on: Aβ plaques; assay: Fluorescence staining of human AD brain tissue sections, co-localisation with 1E8 immunostaining; type: binding; conditions: post-mortem AD human brain, 7 μm serial sections, BSA pre-treated
# From the text: Fluorescence Staining of Human AD Brain. Tissues(^10) Paraffin preserved brain tissue blocks were provided by the Victoria Brain Bank Network. Brain tissue was collected at autopsy. The National Neural Tissue Resource Centre performed Sourcing and preparation of human brain tissue. AD pathologic diagnosis was made according to standard National Institute on Aging-Reagan Institute criteria. Determination of age-matched Human control (HC) cases was subject to the above criteria. The AD and HC brain tissues sections ([…]) were first de-paraffined (xylene, 3×2 min) followed by rehydration (soaking in a series of 100%, 90%, 70% and 0% v/v ethanol/di water). The hydrated tissue sections were washed in phosphate buffer saline (PBS, 5 min). Auto-fluorescence of the tissue was quenched using potassium permanganate (0.25% in PBS, 20 min) and washing with PBS (2×2 min) to remove the excess. […] Finally, the sections were washed with PBS (3×2 min), di water and mounted with non-fluorescent mounting media (Dako), Fluorescence images were visualised using a Leica (Bannockburn, Ill.) DM1RB microscope. […] The tissue was subsequently examined by fluorescent microscopy (epi-fluorescence, λex=420 nm, λex=470 nm) and compared to a sequential brain tissue cross section immunostained with an Aβ antibody (1 E8). […]
# [3] = Partition coefficients (Log D) for 64Cu complexes; type: physicochemical; conditions: 64Cu complex of the listed ligand
smiles,measurement,setting,value
CN=C([S-])N/N=C(C)/C(C)=N/NC([S-])=NC.[Cu+2] [CuII (atsm)],reduction potential Em (Cu^II/Cu^I couple),[1],−0.59 V
"CC(=N\NC(=S)NCCN(C)C)/C(C)=N/Nc1ccc(/C=C/c2ccc(N(C)C)cc2)cn1 [Example H2L3, Diacetyl-2-((E)-2-hydrazino-pyridinyl-4-(4′-N,N-dimethylaminostilbene))-(4-dimethylaminoethyl-3-thiosemicarbazone)]",binding to Aβ plaques (co-localisation of epi-fluorescence with 1E8 antibody immunostaining),[2],binding selectively to Aβ plaques
CNC(S)=NN=C(C)C(C)=NN=C(S)NC [atsmH2a],Log D of complex,[3],1.48
